From patent US12257287B2, “Glucagon-derived peptide and use thereof” (Tianjin Institute of Pharmaceutical Research Co., Ltd., priority 2018, dated 2025) come the findings set out here.

One series deals with T1, human GLP-1 receptor (Homo sapiens, UniProt P43220).
T1 construct: expressed in transfected cells; host or cells: Chinese guinea pig lung cells [sic]
Put plainly: GLP-1 receptor mediated cAMP production in vitro. The series is classed as cell-based. The settings on record: cells transfected with human GLP-1 receptor, 20 min at 37° C., read-out: GLP-1R (nM EC50). The text has this:
(§1) The medium was removed, the cells were lysed, and cAMP values were detected referring to the detection method described for the assay kit.

The target in a further series is T2, GC receptor (Homo sapiens, UniProt P47871).
T2 construct: expressed in transfected cells; host or cells: HEK293 cells
Put plainly: GC receptor mediated cAMP production in vitro (HEK293 cells transfected with GC receptor). Type of series: cell-based. Particulars: 20 min at 37° C., read-out: GCGR (nM EC50).
From the text: as §1
(In general: Changes in cAMP serve as a functional read-out for many G protein-coupled receptors.)

Series [1] is described as follows: Effect on body weight of DIO mice after 14 days' administration. The series is classed as in vivo, C57BL/6J mice. Particulars: for body weight reduction (in words): DIO mice, 14 days, conclusions on Tables 3 and 5. An outline of the steps:
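C57BL/6J mice on H10060 high-fat diet for 34 weeks (DIO; 45.0–52.0 g), 5 per group, dosed subcutaneously once daily for 14 days; controls received saline. Body weight change (%) = (initial − last-day weight)/initial weight; positive values mean loss.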

A short description of series [2]: Glucose tolerance test in glucose-loaded DIO mice. The arrangement: AUC reduction rate (%), Table 6: concentration or dose not given beside the values. Type of series: in vivo. The settings on record: for glucose tolerance / blood glucose lowering (in words): DIO mice, conclusions on Tables 4 and 6. The method in brief:
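DIO mice fasted 16 h received compound subcutaneously; 1 h later, glucose 1 g/kg was given intraperitoneally. Blood glucose measured at 0.5, 1 and 1.5 h; AUC compared with model control group to give blood glucose inhibition rate (%).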

Series [3] in a line: Short-term administration: food intake and body weight in DIO mice. Type of series: in vivo. The settings on record: 30 nmol/kg once every 24 h, twice, − decrease; for Rate of change in food intake (%): at 48 hours vs day before administration; for Body weight change: at 48 hours. An outline of the steps:
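DIO mice (mean body weight 52.5 g), 5 per group, dosed at 30 nmol/kg every 24 h for two doses, in 10 mM PBS pH 7.4; controls received solvent. Food intake and body weight at 48 h expressed as change rate versus the day before dosing.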

A short description of another series: physchem. The series is classed as physicochemical.
A short description of series [4]: Accelerated chemical stability in injection solvent system (HPLC-UV). Type of series: physicochemical. Particulars: 14 days, phosphate buffer pH 7.3 with Tween 80 and phenol, main peak area vs day 0. The method in brief: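 Compound dissolved in 10 mM pH 8.5 sodium hydrogen phosphate buffer, adjusted to pH 7.3, with Tween 80 and phenol added. Solutions stored 14 days at 10 °C and 37 °C; HPLC-UV main-peak area by normalisation compared against day 0.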

Where [5] appears, read: pH 7.5, Solubility, pH 7.5, 10 mM phosphate buffer.
[6] abbreviates: pH 7.5, Solubility, pH 7.5, 20 mM phosphate buffer.
The mark [7] stands for this setting: pH 8, Solubility, pH 8.0, 10 mM phosphate buffer.
[8] abbreviates: pH 8, Solubility, pH 8.0, 20 mM phosphate buffer.

Converted amounts (≈) assume the structure as drawn. Marks after values point to notes of the source that are not given here. Numbered stars: 1 amine (or outer) side, 2 acyl side, 3 side chain; on linkers, the order of the positions; unused ones are H or OH. Square brackets hold non-standard residues; d marks the D form. Side chains are listed from the residue outwards. Peptide text beside a SMILES is read from it. * marks the point of attachment. C20 diacid = O=C(O)CCCCCCCCCCCCCCCCCCC(=O)*; C18 diacid = O=C(O)CCCCCCCCCCCCCCCCC(=O)*; γGlu = O=C(O)[C@H](CCC(=O)[*:2])N[*:1]; AEEA = NCCOCCOCC(=O)O; Aib = CC(C)(N)C(=O)O
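For Solubility in this document: compound added at 2 mg per mL of phosphate buffer, with the dissolved amount determined in the supernatant.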

T1 sequence (P43220 24-463): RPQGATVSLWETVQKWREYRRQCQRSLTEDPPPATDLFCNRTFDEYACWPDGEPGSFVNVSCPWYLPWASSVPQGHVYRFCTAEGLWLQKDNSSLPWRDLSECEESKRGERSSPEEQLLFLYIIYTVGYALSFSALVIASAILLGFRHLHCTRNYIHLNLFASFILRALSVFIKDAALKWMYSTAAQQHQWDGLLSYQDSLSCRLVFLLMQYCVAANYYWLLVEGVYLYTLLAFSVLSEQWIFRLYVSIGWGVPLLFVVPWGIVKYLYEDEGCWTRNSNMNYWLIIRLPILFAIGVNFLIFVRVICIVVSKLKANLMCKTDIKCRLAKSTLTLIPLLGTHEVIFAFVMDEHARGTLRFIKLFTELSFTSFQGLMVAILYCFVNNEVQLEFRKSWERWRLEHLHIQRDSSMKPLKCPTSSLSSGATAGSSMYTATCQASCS
T2 sequence (P47871 26-477): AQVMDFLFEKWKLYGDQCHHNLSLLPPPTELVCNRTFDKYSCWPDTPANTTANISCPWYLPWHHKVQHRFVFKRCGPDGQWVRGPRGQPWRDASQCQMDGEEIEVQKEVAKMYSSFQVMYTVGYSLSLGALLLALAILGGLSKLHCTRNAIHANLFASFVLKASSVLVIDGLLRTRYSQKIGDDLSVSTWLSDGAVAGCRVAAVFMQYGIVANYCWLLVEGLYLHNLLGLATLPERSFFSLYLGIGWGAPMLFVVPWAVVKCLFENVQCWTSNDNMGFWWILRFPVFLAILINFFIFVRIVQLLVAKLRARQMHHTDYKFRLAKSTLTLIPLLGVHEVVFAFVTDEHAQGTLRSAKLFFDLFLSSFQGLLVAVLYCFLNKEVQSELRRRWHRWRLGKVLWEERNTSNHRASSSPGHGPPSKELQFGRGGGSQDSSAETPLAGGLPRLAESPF

Turning to `CC[C@H](C)[C@H](NC(=O)[C@H](Cc1ccccc1)NC(=O)[C@H](CCC(=O)O)NC(=O)[C@H](CCCCN)NC(=O)[C@H](C)NC(=O)[C@H](C)NC(=O)[C@H](CCCNC(=N)N)NC(=O)[C@H](CCC(=O)O)NC(=O)[C@H](CCC(=O)O)NC(=O)[C@H](CC(C)C)NC(=O)[C@H](Cc1ccc(O)cc1)NC(=O)[C@H](CCCCN)NC(=O)[C@H](CO)NC(=O)[C@H](CCCCNC(=O)COCCOCCNC(=O)COCCOCCNC(=O)CC[C@H](NC(=O)CCCCCCCCCCCCCCCCCCC(=O)O)C(=O)O)NC(=O)[C@H](CC(=O)O)NC(=O)[C@H](CO)NC(=O)[C@@H](NC(=O)[C@H](Cc1ccccc1)NC(=O)[C@@H](NC(=O)CNC(=O)[C@H](CCC(N)=O)NC(=O)C(C)(C)NC(=O)[C@@H](N)Cc1c[nH]cn1)[C@@H](C)O)[C@@H](C)O)C(=O)N[C@@H](C)C(=O)N[C@@H](Cc1c[nH]c2ccccc12)C(=O)N[C@@H](CC(C)C)C(=O)N[C@@H](CCC(=O)O)C(=O)N[C@@H](C)C(=O)NCC(=O)NCC(=O)N1CCC[C@H]1C(=O)N[C@@H](CO)C(=O)N[C@@H](CO)C(=O)NCC(N)=O` [Compound 35] (H-H[Aib]QGTFTSDK([AEEA-AEEA-γGlu-C20 diacid])SKYLEERAAKEFIAWLEAGGPSSG-NH2; N-terminus assumed), the EC50 (usually the concentration giving half of the maximal effect) at human GLP-1 receptor came out at 0.044 nM; at GC receptor, 0.036 nM. In addition, the “body weight reduction (in words)” value in series [1] is on record as “significantly reduced body weight”. Further, the “glucose tolerance / blood glucose lowering (in words)” value in series [2] is listed as “significantly improved glucose tolerance”. The “Rate of change in food intake (%)” value in series [3] is on record as −59%. Further, the “Body weight change” value in series [3] is -3.2 g. Further, the solubility (as a rule, the concentration that dissolves in the medium under given conditions) in “physchem” (setting [5]) is 1840 µg/mL (≈ 416 µM); in the series “physchem” (setting [6]), 1170 µg/mL (≈ 264 µM); in the series “physchem” (setting [7]), greater than 2000 µg/mL; in the series “physchem” (setting [8]), greater than 2000 µg/mL. For the same compound, the “Change in purity % (10° C.)” value in series [4] was −0.6%. The “Change in purity % (37° C.)” value in series [4] was −3.1%.
As to `CC(C)C[C@H](NC(=O)[C@H](Cc1c[nH]c2ccccc12)NC(=O)[C@H](CCC(=O)O)NC(=O)[C@@H](NC(=O)[C@H](Cc1ccccc1)NC(=O)[C@H](CCC(=O)O)NC(=O)[C@H](CCCCNC(=O)COCCOCCNC(=O)COCCOCCNC(=O)CC[C@H](NC(=O)CCCCCCCCCCCCCCCCC(=O)O)C(=O)O)NC(=O)[C@H](C)NC(=O)[C@H](CCCNC(=N)N)NC(=O)[C@H](CCCCN)NC(=O)[C@H](CCC(=O)O)NC(=O)[C@H](CCC(=O)O)NC(=O)[C@H](CC(C)C)NC(=O)[C@H](Cc1ccc(O)cc1)NC(=O)[C@H](CCCCN)NC(=O)[C@H](CO)NC(=O)[C@H](Cc1ccc(O)cc1)NC(=O)[C@H](CC(=O)O)NC(=O)[C@H](CO)NC(=O)[C@@H](NC(=O)[C@H](Cc1ccccc1)NC(=O)[C@@H](NC(=O)CNC(=O)[C@H](CCC(N)=O)NC(=O)C(C)(C)NC(=O)[C@@H](N)Cc1c[nH]cn1)[C@@H](C)O)[C@@H](C)O)C(C)C)C(=O)N[C@@H](CCC(=O)O)C(=O)N[C@@H](C)C(=O)NCC(=O)NCC(=O)N1CCC[C@H]1C(=O)N[C@@H](CO)C(=O)N[C@@H](CO)C(=O)NCC(N)=O` [Compound 54] (H-H[Aib]QGTFTSDYSKYLEEKRAK([AEEA-AEEA-γGlu-C18 diacid])EFVEWLEAGGPSSG-NH2; N-terminus assumed), the EC50 at human GLP-1 receptor was 0.219 nM; at GC receptor it was 0.274 nM. Also, the “body weight reduction (in words)” value in series [1] is recorded as “significantly reduced body weight”. Moreover, the “glucose tolerance / blood glucose lowering (in words)” value in series [2] is “significantly improved glucose tolerance”. The “Rate of change in food intake (%)” value in series [3] is −35%. Moreover, in series [3], the “Body weight change” value was -0.9 g. Also, the solubility in “physchem” (setting [5]) worked out at 1260 µg/mL (≈ 278 µM); in “physchem” (setting [6]) it was 1080 µg/mL (≈ 238 µM); in the series “physchem” (setting [7]) it was 1920 µg/mL (≈ 423 µM); in the series “physchem” (setting [8]) it was 1180 µg/mL (≈ 260 µM).
On to `CC[C@H](C)[C@H](NC(=O)[C@H](Cc1ccccc1)NC(=O)[C@H](CCC(=O)O)NC(=O)[C@H](CCCCNC(=O)COCCOCCNC(=O)COCCOCCNC(=O)CC[C@H](NC(=O)CCCCCCCCCCCCCCCCC(=O)O)C(=O)O)NC(=O)[C@H](C)NC(=O)[C@H](CCCCN)NC(=O)[C@H](CCCNC(=N)N)NC(=O)[C@H](CCC(=O)O)NC(=O)[C@H](CC(=O)O)NC(=O)[C@H](CC(C)C)NC(=O)[C@H](Cc1ccc(O)cc1)NC(=O)[C@H](CCCCN)NC(=O)[C@H](CO)NC(=O)[C@H](Cc1ccc(O)cc1)NC(=O)[C@H](CC(=O)O)NC(=O)[C@H](CO)NC(=O)[C@@H](NC(=O)[C@H](Cc1ccccc1)NC(=O)[C@@H](NC(=O)CNC(=O)[C@H](CCC(N)=O)NC(=O)C(C)(C)NC(=O)[C@@H](N)Cc1c[nH]cn1)[C@@H](C)O)[C@@H](C)O)C(=O)N[C@@H](CCC(=O)O)C(=O)N[C@@H](Cc1c[nH]c2ccccc12)C(=O)N[C@@H](CC(C)C)C(=O)N[C@@H](CCC(=O)O)C(=O)NCC(=O)NCC(=O)N1CCC[C@H]1C(=O)N[C@@H](CO)C(=O)N[C@@H](CO)C(=O)NCC(N)=O` [Compound 66] (H-H[Aib]QGTFTSDYSKYLDERKAK([AEEA-AEEA-γGlu-C18 diacid])EFIEWLEGGPSSG-NH2; N-terminus assumed), for which the EC50 was determined as 0.051 nM on human GLP-1 receptor and 0.058 nM at GC receptor. Further, the “body weight reduction (in words)” value in series [1] is listed as “significantly reduced body weight”. Also, the “glucose tolerance / blood glucose lowering (in words)” value in series [2] is listed as “significantly improved glucose tolerance”. The “Rate of change in food intake (%)” value in series [3] is recorded as −56%. Moreover, the “Body weight change” value in series [3] was -1.7 g. The solubility in the series “physchem” (setting [5]) is 1490 µg/mL (≈ 334 µM); in the series “physchem” (setting [6]), 1420 µg/mL (≈ 318 µM); in “physchem” (setting [7]) it was greater than 2000 µg/mL; in “physchem” (setting [8]), 1880 µg/mL (≈ 421 µM). The “Change in purity % (10° C.)” value in series [4] is recorded as −2.7%. For the same compound, the “Change in purity % (37° C.)” value in series [4] was −5.1%.
For `CC[C@H](C)[C@H](NC(=O)[C@H](Cc1ccccc1)NC(=O)[C@H](CCC(=O)O)NC(=O)[C@H](CCCCN)NC(=O)[C@H](C)NC(=O)[C@H](C)NC(=O)[C@H](CCCNC(=N)N)NC(=O)[C@H](CCC(=O)O)NC(=O)[C@H](CCC(=O)O)NC(=O)[C@H](CC(C)C)NC(=O)[C@H](Cc1ccc(O)cc1)NC(=O)[C@H](CCCCN)NC(=O)[C@H](CO)NC(=O)[C@H](CCCCNC(=O)COCCOCCNC(=O)COCCOCCNC(=O)CC[C@H](NC(=O)CCCCCCCCCCCCCCCCC(=O)O)C(=O)O)NC(=O)[C@H](CC(=O)O)NC(=O)[C@H](CO)NC(=O)[C@@H](NC(=O)[C@H](Cc1ccccc1)NC(=O)[C@@H](NC(=O)CNC(=O)[C@H](CCC(N)=O)NC(=O)C(C)(C)NC(=O)[C@@H](N)Cc1c[nH]cn1)[C@@H](C)O)[C@@H](C)O)C(=O)N[C@@H](C)C(=O)N[C@@H](Cc1c[nH]c2ccccc12)C(=O)N[C@@H](CC(C)C)C(=O)N[C@@H](CCC(=O)O)C(=O)NCC(=O)NCC(=O)N1CCC[C@H]1C(=O)N[C@@H](CO)C(=O)N[C@@H](CO)C(=O)NCC(N)=O` [Compound 6] (H-H[Aib]QGTFTSDK([AEEA-AEEA-γGlu-C18 diacid])SKYLEERAAKEFIAWLEGGPSSG-NH2; N-terminus assumed), the EC50 at human GLP-1 receptor worked out at 0.439 nM; at GC receptor it was 0.052 nM. Further, the “body weight change, Table 5” value in series [1] (Example 4, DIO mice, 14 days' administration, methods as in Example 3, positive values indicate a decrease) turned out to be 28.32. Further, the “AUC of blood glucose, Table 6” value in series [2] (Example 4, DIO mice under glucose load, methods as in Example 3) was 8.99 ± 1.46 mmol·h/L. Moreover, the “AUC reduction rate (%), Table 6” value in series [2] (Example 4, compared with model control group, DIO mice under glucose load) is 54.7** %. In addition, the solubility in “physchem” (setting [5]) is 1390 µg/mL (≈ 321 µM); in the series “physchem” (setting [6]), 980 µg/mL (≈ 226 µM); in “physchem” (setting [7]) it was greater than 2000 µg/mL; in “physchem” (setting [8]), 1620 µg/mL (≈ 374 µM).
